Data taken from US9708314B2, “Heterocyclic amide compound” (NISSAN CHEMICAL INDUSTRIES, LTD., priority 2013, dated 2017).

Key:
Assay type in all cases: in vivo
Triticum aestivum = experiment: Test Example 4: effect on crop by application to foliage (diluvial soil, plastic box); conditions: for e (Triticum aestivum) effect on crop grade: foliage application; for e: effect on crop, Triticum aestivum: application to foliage, application herbicide amount 320 g/ha
How it was run: (§1)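 Greenhouse plants (25° C. to 30° C., 14 d, diluvial soil) receive a foliar spray of water-diluted emulsifiable formulation at defined g/ha. Grading after 3 weeks uses a six-step herbicidal-ratio scale, with 4 covering 70% to <90% and 1 covering 5% to <20%.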

[1] = tested on: Beta vulgaris ssp. vulgaris; experiment: as above; conditions: for f (Beta vulgaris ssp. vulgaris) effect on crop grade: foliage application; for f: effect on crop, Beta vulgaris ssp. vulgaris: application to foliage, application herbicide amount 320 g/ha
How it was run: as §1

[2] = tested on: directly sowed Oryza sativa; experiment: as above; conditions: for b: effect on crop, directly sowed Oryza sativa: application to foliage, application herbicide amount 320 g/ha; for b (directly sowed Oryza sativa) effect on crop grade: Application herbicide amount 320 g/ha
How it was run: as §1

Brassica campestris L. = experiment: as above; conditions: for g (Brassica campestris L.) effect on crop grade: foliage application; for g: effect on crop, Brassica campestris L.: application to foliage, application herbicide amount 320 g/ha
How it was run: as §1

Zea mays = experiment: as above; conditions: for c: effect on crop, Zea mays: application to foliage, application herbicide amount 320 g/ha; for c (Zea mays) effect on crop grade: Application herbicide amount 320 g/ha
How it was run: as §1

Glycine max = experiment: as above; conditions: for d: effect on crop, Glycine max: application to foliage, application herbicide amount 320 g/ha; for d (Glycine max) effect on crop grade: Application herbicide amount 320 g/ha
How it was run: as §1

Stellaria media = experiment: Test Example 4: herbicidal effect by application to foliage (diluvial soil, plastic box); conditions: for P (Stellaria media) herbicidal effect grade: foliage application; for P: herbicidal effect on Stellaria media: application to foliage, application herbicide amount 320 g/ha
How it was run: as §1

[3] = tested on: directly sowed Oryza sativa; experiment: Test Example 3: effect on crop by application to foliage (Wagner pot, water depth 0.1-0.5 cm); conditions: Nineteenth Table; application to foliage; application herbicide amount 320 g/ha
How it was run: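 Post-emergence foliar application at a stated g/ha rate to plants grown 14 days from seed in alluvial soil, greenhouse 25–30 °C. Visual score after 3 weeks: 0 (≤5% effect) through 5 (≥90%).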

[4] = tested on: transplanted Oryza sativa; experiment: Test Example 1: effect on crop, application before weed generation in submerged conditions; conditions: Application herbicide amount 320 g/ha; Seventeenth Table
How it was run: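 Water-diluted emulsion formulation is applied onto flood water (4 cm deep) covering alluvial soil on the day weed seeds are sown, after transplanting 2.5 leaf stage rice. Rates are expressed per hectare. Injury or control is graded 0–5 three weeks later.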

[5] = Application herbicide amount 320 g/ha

Compound | b (effect on crop grade) [3] | a: transplanted Oryza sativa (effect on crop grade) [4] | e: effect on crop, Triticum aestivum (Triticum aestivum) | f: effect on crop, Beta vulgaris ssp. vulgaris [1] | b: effect on crop, directly sowed Oryza sativa [2] | g: effect on crop, Brassica campestris L. (Brassica campestris L.) | c: effect on crop, Zea mays (Zea mays) | d: effect on crop, Glycine max (Glycine max) | P: herbicidal effect on Stellaria media (Stellaria media) | e (Triticum aestivum) effect on crop grade (Triticum aestivum; [5]) | f (Beta vulgaris ssp. vulgaris) effect on crop grade [1, 5] | b (directly sowed Oryza sativa) effect on crop grade ([2]; foliage application) | g (Brassica campestris L.) effect on crop grade (Brassica campestris L.; [5]) | c (Zea mays) effect on crop grade (Zea mays; foliage application) | d (Glycine max) effect on crop grade (Glycine max; foliage application) | P (Stellaria media) herbicidal effect grade (Stellaria media; [5]) | further results
CSCc1nnc2c(C(=O)Nc3nnnn3C)ccc(C(F)(F)F)n12 [2-029] | 5 (Herbicidal ratio of 90% or more (almost completely withered)) | 5 (Herbicidal ratio of 90% or more (almost completely withered)) |  |  |  |  |  |  |  |  |  |  |  |  |  |  | e (Triticum aestivum) effect on crop grade (Triticum aestivum; 320 g/ha): 5 (Herbicidal ratio of 90% or more (almost completely withered)); f (Beta vulgaris ssp. vulgaris) effect on crop grade ([1]; 320 g/ha): 5 (Herbicidal ratio of 90% or more (almost completely withered)); d (directly sowed Oryza sativa) effect on crop grade ([2]; foliage application, 320 g/ha): 5 (Herbicidal ratio of 90% or more (almost completely withered)); g (Brassica campestris L.) effect on crop grade (Brassica campestris L.; 320 g/ha): 5 (Herbicidal ratio of 90% or more (almost completely withered)); b (Zea mays) effect on crop grade (Zea mays; foliage application, 320 g/ha): 5 (Herbicidal ratio of 90% or more (almost completely withered)); c (Glycine max) effect on crop grade (Glycine max; foliage application, 320 g/ha): 4 (Herbicidal ratio of 70% or more and less than 90%); P (Stellaria media) herbicidal effect grade (Stellaria media; 320 g/ha): 5 (Herbicidal ratio of 90% or more (almost completely withered))
Cn1nnnc1NC(=O)c1ccc(C(F)(F)F)n2c(COc3ccccc3)nnc12 [2-020] | 4 (Herbicidal ratio of 70% or more and less than 90%) | 1 (Herbicidal ratio of 5% or more and less than 20%) | 1 (Herbicidal ratio of 5% or more and less than 20%) | 5 (Herbicidal ratio of 90% or more (almost completely withered)) | 2 (Herbicidal ratio of 20% or more and less than 40%) | 3 (Herbicidal ratio of 40% or more and less than 70%) | 0 (Herbicidal ratio of 5% or less (almost no effect)) | 3 (Herbicidal ratio of 40% or more and less than 70%) | 4 (Herbicidal ratio of 70% or more and less than 90%) |  |  |  |  |  |  |  | 
COc1ccc(-c2nnc3c(C(=O)Nc4nnnn4C)ccc(C(F)(F)F)n23)cc1 [2-011] | 5 (Herbicidal ratio of 90% or more (almost completely withered)) | 2 (Herbicidal ratio of 20% or more and less than 40%) | 1 (Herbicidal ratio of 5% or more and less than 20%) | 5 (Herbicidal ratio of 90% or more (almost completely withered)) | 5 (Herbicidal ratio of 90% or more (almost completely withered)) | 1 (Herbicidal ratio of 5% or more and less than 20%) | 1 (Herbicidal ratio of 5% or more and less than 20%) | 4 (Herbicidal ratio of 70% or more and less than 90%) | 5 (Herbicidal ratio of 90% or more (almost completely withered)) |  |  |  |  |  |  |  | 
COc1ccc(N(C)c2nnc3c(C(=O)Nc4nnc(C)o4)ccc(C(F)(F)F)n23)cc1 [1-165] | 0 (Herbicidal ratio of 5% or less (almost no effect)) | 0 (Herbicidal ratio of 5% or less (almost no effect)) | 0 (Herbicidal ratio of 5% or less (almost no effect)) | 5 (Herbicidal ratio of 90% or more (almost completely withered)) | 0 (Herbicidal ratio of 5% or less (almost no effect)) | 4 (Herbicidal ratio of 70% or more and less than 90%) | 0 (Herbicidal ratio of 5% or less (almost no effect)) | 1 (Herbicidal ratio of 5% or more and less than 20%) | 4 (Herbicidal ratio of 70% or more and less than 90%) |  |  |  |  |  |  |  | 
COCc1nnc2c(C(=O)Nc3nnnn3C)ccc(C(F)(F)F)n12 [2-010, 3-(Methoxymethyl)-N-(1-methyl-1H-tetrazol-5-yl)-5-(trifluoromethyl)-[1,2,4]triazol o[4,3-a]pyridine-8-carboxamide] | 5 (Herbicidal ratio of 90% or more (almost completely withered)) | 4 (Herbicidal ratio of 70% or more and less than 90%) | 3 (Herbicidal ratio of 40% or more and less than 70%) | 5 (Herbicidal ratio of 90% or more (almost completely withered)) | 5 (Herbicidal ratio of 90% or more (almost completely withered)) | 5 (Herbicidal ratio of 90% or more (almost completely withered)) | 3 (Herbicidal ratio of 40% or more and less than 70%) | 4 (Herbicidal ratio of 70% or more and less than 90%) | 5 (Herbicidal ratio of 90% or more (almost completely withered)) |  |  |  |  |  |  |  | 
Cc1nnc(NC(=O)c2ccc(C(F)(F)F)n3c(SCC4CCCO4)nnc23)o1 (stereo not drawn) [1-116] | 0 (Herbicidal ratio of 5% or less (almost no effect)) | 0 (Herbicidal ratio of 5% or less (almost no effect)) |  |  |  |  |  |  |  | 2 (Herbicidal ratio of 20% or more and less than 40%) | 5 (Herbicidal ratio of 90% or more (almost completely withered)) | 0 (Herbicidal ratio of 5% or less (almost no effect)) | 4 (Herbicidal ratio of 70% or more and less than 90%) | 0 (Herbicidal ratio of 5% or less (almost no effect)) | 3 (Herbicidal ratio of 40% or more and less than 70%) | 5 (Herbicidal ratio of 90% or more (almost completely withered)) | 
COCCN(C)c1nnc2c(C(=O)Nc3nnco3)ccc(C(F)(F)F)n12 [1-121] | 3 (Herbicidal ratio of 40% or more and less than 70%) | 3 (Herbicidal ratio of 40% or more and less than 70%) |  |  |  |  |  |  |  | 3 (Herbicidal ratio of 40% or more and less than 70%) | 5 (Herbicidal ratio of 90% or more (almost completely withered)) | 2 (Herbicidal ratio of 20% or more and less than 40%) | 5 (Herbicidal ratio of 90% or more (almost completely withered)) | 2 (Herbicidal ratio of 20% or more and less than 40%) | 4 (Herbicidal ratio of 70% or more and less than 90%) | 5 (Herbicidal ratio of 90% or more (almost completely withered)) | 
Cc1nnc(NC(=O)c2ccc(C(F)(F)F)n3c(N4CCS(=O)(=O)CC4)nnc23)o1 [1-120] | 3 (Herbicidal ratio of 40% or more and less than 70%) | 3 (Herbicidal ratio of 40% or more and less than 70%) |  |  |  |  |  |  |  | 3 (Herbicidal ratio of 40% or more and less than 70%) | 5 (Herbicidal ratio of 90% or more (almost completely withered)) | 2 (Herbicidal ratio of 20% or more and less than 40%) | 5 (Herbicidal ratio of 90% or more (almost completely withered)) | 0 (Herbicidal ratio of 5% or less (almost no effect)) | 4 (Herbicidal ratio of 70% or more and less than 90%) | 5 (Herbicidal ratio of 90% or more (almost completely withered)) | 
CCCSc1nnc2c(C(=O)Nc3nnco3)ccc(C(F)(F)F)n12 [1-108] | 1 (Herbicidal ratio of 5% or more and less than 20%) | 0 (Herbicidal ratio of 5% or less (almost no effect)) |  |  |  |  |  |  |  | 1 (Herbicidal ratio of 5% or more and less than 20%) | 5 (Herbicidal ratio of 90% or more (almost completely withered)) | 1 (Herbicidal ratio of 5% or more and less than 20%) | 3 (Herbicidal ratio of 40% or more and less than 70%) | 1 (Herbicidal ratio of 5% or more and less than 20%) | 4 (Herbicidal ratio of 70% or more and less than 90%) | 5 (Herbicidal ratio of 90% or more (almost completely withered)) | 
